In patent US20090062401A1, “DECALINE-DERIVED COMPOUNDS AS […] ACTIVE AGENTS” (UNIVERSITAT DORTMUND, priority 2004, published 2009):
Like-named read-outs stand apart in the source and are kept apart here.

Columns and labels:
PP1 = PP1 phosphatase inhibition, general phosphatase assay using para-nitrophenylphosphate; format: biochemical; conditions: read-out: IC50 Target PP1
From the text: (§1) Assays protocols for the other enzymes mentioned herein (MtPTPA, PP1, VHR, PTP1B) are disclosed in Schweizer R A S, Atanasov, G A, Frey B M, and Odermatt A, Mol. Cell. Endocrinol. 2003, 212, 41-49 and Barratte, B., Meijer L., Galaktionov K. & Beach D, Anticancer Res. 1992, 12, 873-880. For determination of the phosphatase activity, a general phosphatase assay using para-nitrophenylphosphate was applied.

PTP1B = biological target: T1, PTP1B (Homo sapiens, UniProt P18031); assay: PTP1B phosphatase inhibition, general phosphatase assay using para-nitrophenylphosphate; format: biochemical
T1 sequence (P18031 1-435): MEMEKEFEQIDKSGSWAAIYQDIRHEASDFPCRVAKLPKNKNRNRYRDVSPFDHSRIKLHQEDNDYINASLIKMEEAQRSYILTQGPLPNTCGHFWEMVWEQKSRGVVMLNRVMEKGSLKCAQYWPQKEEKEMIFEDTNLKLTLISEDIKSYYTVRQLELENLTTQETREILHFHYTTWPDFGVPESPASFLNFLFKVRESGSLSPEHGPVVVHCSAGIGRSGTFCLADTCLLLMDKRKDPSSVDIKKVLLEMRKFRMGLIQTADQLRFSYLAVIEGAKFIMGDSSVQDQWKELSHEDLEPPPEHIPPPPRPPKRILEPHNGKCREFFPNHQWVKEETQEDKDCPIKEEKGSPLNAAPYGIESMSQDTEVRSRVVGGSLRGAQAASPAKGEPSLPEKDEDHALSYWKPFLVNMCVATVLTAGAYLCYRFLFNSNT
From the text: as §1

11beta-HSD1 = 11beta-HSD1 (Homo sapiens, UniProt P28845); assay: biochemical; conditions: read-out: IC50 Target 11beta-HSD1
From the text: (§2) Assay protocols for Cdc25A, 11βHSD1, 11βHSD2, and AChE are described in detain in the publication of Koch M A, Wittenberg L O, Basu S, Jeyaraj D A, Gourzoulidou E, Reinecke K, Odermatt A, Waldmann H (Proc. Natl. Acad. Sci. U.S.A. 2004 Nov. 30; 101(48):16721-6) and in Koch M A et al., Proc. Natl. Acad. Sci. U.S.A. 2005 Nov. 29; 102 (48):17272-7.

Cdc25A = biological target: T2, Cdc25A (Homo sapiens, UniProt P30304); assay: Cdc25A phosphatase inhibition; format: biochemical
T2 sequence (P30304 1-524): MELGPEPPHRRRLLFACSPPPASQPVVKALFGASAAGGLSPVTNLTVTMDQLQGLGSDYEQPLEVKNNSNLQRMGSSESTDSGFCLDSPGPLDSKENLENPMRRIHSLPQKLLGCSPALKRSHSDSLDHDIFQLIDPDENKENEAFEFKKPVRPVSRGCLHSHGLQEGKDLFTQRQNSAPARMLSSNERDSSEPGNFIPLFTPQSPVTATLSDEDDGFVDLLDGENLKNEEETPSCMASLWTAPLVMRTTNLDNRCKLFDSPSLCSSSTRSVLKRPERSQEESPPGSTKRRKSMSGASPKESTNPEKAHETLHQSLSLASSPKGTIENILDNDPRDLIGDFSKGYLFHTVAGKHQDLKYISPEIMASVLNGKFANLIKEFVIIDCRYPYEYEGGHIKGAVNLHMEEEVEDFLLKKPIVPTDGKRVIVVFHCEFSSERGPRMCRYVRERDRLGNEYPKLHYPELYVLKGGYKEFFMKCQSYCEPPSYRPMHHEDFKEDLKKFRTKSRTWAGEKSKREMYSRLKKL
From the text: as §2

VHR = VHR (Homo sapiens, UniProt P51452); assay: VHR phosphatase inhibition, general phosphatase assay using para-nitrophenylphosphate; format: biochemical; conditions: read-out: IC50 Target VHR
From the text: as §1

MPTPA = MPTPA (Mycobacterium tuberculosis, UniProt P9WIA1); assay: MtPTPA phosphatase inhibition, general phosphatase assay using para-nitrophenylphosphate; format: biochemical
From the text: as §1

Sequence of 11beta-HSD1 (P28845 whole entry): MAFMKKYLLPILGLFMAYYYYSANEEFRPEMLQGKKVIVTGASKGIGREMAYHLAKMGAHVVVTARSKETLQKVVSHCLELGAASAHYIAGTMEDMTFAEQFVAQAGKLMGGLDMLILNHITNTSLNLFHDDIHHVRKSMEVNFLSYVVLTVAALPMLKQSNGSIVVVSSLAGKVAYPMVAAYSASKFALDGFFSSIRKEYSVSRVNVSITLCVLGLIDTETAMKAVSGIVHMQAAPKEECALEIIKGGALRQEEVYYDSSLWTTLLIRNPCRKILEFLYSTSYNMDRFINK
Sequence of VHR (P51452 whole entry, species assumed): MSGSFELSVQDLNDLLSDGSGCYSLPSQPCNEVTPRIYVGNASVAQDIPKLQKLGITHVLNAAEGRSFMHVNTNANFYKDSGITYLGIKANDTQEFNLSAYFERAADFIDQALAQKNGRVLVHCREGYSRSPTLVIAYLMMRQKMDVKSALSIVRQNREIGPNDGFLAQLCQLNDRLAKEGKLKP
Sequence of MPTPA (P9WIA1 whole entry): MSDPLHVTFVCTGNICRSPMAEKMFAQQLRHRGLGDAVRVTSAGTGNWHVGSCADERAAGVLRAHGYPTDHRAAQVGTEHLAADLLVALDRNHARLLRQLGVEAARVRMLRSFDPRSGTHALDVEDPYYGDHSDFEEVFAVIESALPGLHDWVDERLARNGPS

SMILES	IC50 (PP1) [µM]	IC50 (PTP1B; read-out: IC50 Target PTP1B) [µM]	IC50 (VHR) [µM]	IC50 (MPTPA; read-out: IC50 Target MPTPA) [µM]	further results
CC1=C2CCC[C@H](O)[C@@]2(C)C/C(=C\c2cc3ccccc3o2)C1=O [Compound 4, (3E,4aS,5S)-3-[(Benzofuran-2-yl)methylen]-4,4a,5,6,7,8-hexahydro-5-hydroxy-1,4a-dimethyl-naphthalen-2(3H)-one]	10 to 50	10 to 50	–	–	IC50 (11beta-HSD1): < 10 µM; IC50 (Cdc25A; read-out: IC50 Target Cdc25A): 10 to 50 µM
CC1=C2CCC[C@H](O)[C@@]2(C)C/C(=C\c2cc(Cl)cs2)C1=O [Compound 12, (3E,4aS,5S)-3-[(4-Chlorthiophen-2-yl)methylen]-4,4a,5,6,7,8-hexahydro-5-hydroxy-1,4a-dimethylnaphthalen-2(3H)-one]	10 to 50	10 to 50	–	–	IC50 (11beta-HSD1): < 10 µM
CC1=C2CCC[C@H](O)[C@@]2(C)C/C(=C\c2ccc([N+](=O)[O-])cc2)C1=O [Compound 17, (3E,4aS,5S)-3-(4-Nitrobenzyliden)-4,4a,5,6,7,8-hexahydro-5-hydroxy-1,4a-dimethylnaphthalen-2(3H)-one]	10 to 50	10 to 50	–	–	–
COc1ccc(/C=C2\C[C@@]3(C)C(=C(C)C2=O)CCC[C@@H]3O)cc1 [Compound 24, (3E,4aS,5S)-3-(4-Methoxybenzyliden)-4,4a,5,6,7,8-hexahydro-5-hydroxy-1,4a-dimethylnaphthalen-2(3H)-on]	–	10 to 50	10 to 50	–	IC50 (11beta-HSD1): < 10 µM; IC50 (Cdc25A; read-out: IC50 Target Cdc25A): 10 to 50 µM; IC50 (MPTPA): 10 to 50 µM
CC1=C2CC/C(=C\c3ccco3)C(=O)[C@@]2(C)CCC1O (stereo partly drawn) [Compound 25, (2E,8aS)-2-[(Furan-2-yl)methylen]-3,4,6,7,8,8a-hexahydro-6-hydroxy-5,8a-dimethylnaphthalen-1(2H)-one]	10 to 50	–	10 to 50	10 to 50	–
CC(=O)Oc1cccc(/C=C2\C[C@@]3(C)C(=C(C)C2=O)CCC[C@@H]3O)c1 [Compound 26, 3-{(1E)-[(4S,4aS)-1,2,3,4,4a,5-Hexahydro-4-hydroxy-4a,8-dimethyl-7-oxonaphthalen-6(7H)-yliden]methyl}phenylacetat]	10 to 50	10 to 50	10 to 50	–	IC50 (11beta-HSD1): < 10 µM
CCCCCCCCCCC#Cc1ccc(/C=C2\C[C@@]3(C)C(=C(C)C2=O)CCC[C@@H]3O)cc1 [Compound 45, (3E,4aS,5S)-3-[4-(Dodec-1-inyl)benzyliden]-4,4a,5,6,7,8-hexahydro-5-hydroxy-1,4a-dimethyl-naphthalen-2(3H)-on]	< 10	10 to 50	10 to 50	–	–
CC1=C2CCCC(O)C2(C)CC(=Cc2ccc(C#CCCCC#N)cc2)C1=O [Compound 47, 6-{4-{(1E)-[(43,4aS)-1,2,3,4,4a,5-Hexahydro-4-hydroxy-4a,8-dimethyl-7-oxonaphthalen-6(7H)-yliden]-methyl}phenyl}hex-5-in-nitril]	< 10	10 to 50	10 to 50	–	IC50 (Cdc25A; read-out: IC50 Target Cdc25A): 10 to 50 µM
CC1=C2CCC[C@H](O)[C@@]2(C)C/C(=C\c2ccc(C#Cc3cccc(F)c3)cc2)C1=O [Compound 49, (3E,4aS,5S)-3-{4-[2-(3-Fluorphenyl)ethinyl]benzyliden}-4,4a,5,6,7,8-hexahydro-5-hydroxy-1,4a-dimethylnaphthalen-2(3H)-one]	< 10	–	10 to 50	–	IC50 (Cdc25A; read-out: IC50 Target Cdc25A): < 10 µM
CC1=C2CCC[C@H](O)[C@@]2(C)C/C(=C\c2ccc(C#C[Si](C)(C)C)cc2)C1=O [Compound 53, (3E,4aS,5S)-3-{4-[2-(Trimethylsilyl)ethinyl]benzyliden}-4,4a,5,6,7,8-hexahydro-5-hydroxy-1,4a-dimethylnaphthalen-2(3H)-on]	10 to 50	–	–	–	IC50 (PTP1B): 10 to 50 µM; IC50 (Cdc25A): 10 to 50 µM
CC1=C2CCC[C@H](O)[C@@]2(C)C/C(=C\c2ccc(C#CCCO)cc2)C1=O [Compound 55, (3E,4aS,5S)-3-[4-(4-Hydroxybut-1-inyl)benzyliden]-4,4a,5,6,7,8-hexahydro-5-hydroxy-1,4a-dimethylnaphthalen-2(3H)-one]	–	10 to 50	10 to 50	–	IC50 (Cdc25A; read-out: IC50 Target Cdc25A): < 10 µM; IC50 (MPTPA): 10 to 50 µM
C=C(C)C#Cc1ccc(/C=C2\C[C@@]3(C)C(=C(C)C2=O)CCC[C@@H]3O)cc1 [Compound 56, (3E,4aS,5S)-3-[4-(3-Methylbut-3-en-1-inyl)benzyliden]-4,4a,5,6,7,8-hexahydro-5-hydroxy-1,4a-dimethylnaphthalen-2(3H)-on]	–	10 to 50	10 to 50	–	IC50 (MPTPA): 10 to 50 µM
CCCC#Cc1ccc(/C=C2\C[C@@]3(Cc4ccccc4)C(=C(C)C2=O)CCC[C@@H]3O)cc1 [Compound 130, (3E,4aS,5S)-3-[4-(Pent-1-inyl)benzyliden]-4a-benzyl-4,4a,5,6,7,8-hexahydro-5-hydroxy-1-methylnaphthalen-2(3H)-one]	–	–	10 to 50	10 to 50	–
CCCCCCCCCC#Cc1ccc(/C=C2\C[C@@]3(C)C(CCC[C@@H]3O)C(C)C2=O)cc1 (stereo partly drawn) [Compound 131, (E,4aS,5S)-3-[4-(Undec-1-inyl)benzyliden]-octahydro-5-hydroxy-1,4a-dimethylnaphthalen-2(1H)-one]	–	–	10 to 50	10 to 50	–
CCCCCCCCCCCCC#Cc1ccc(/C=C2\C[C@@]3(C)C(CCC[C@@H]3O)C(C)C2=O)cc1 (stereo partly drawn) [Compound 133, (E,4aS,5S)-3-[4-(Tetradec-1-inyl)benzyliden]-octahydro-5-hydroxy-1,4a-dimethylnaphthalen-2(1H)-one]	–	–	10 to 50	10 to 50	–
CCCCCCCCCCCCC#Cc1ccc(/C=C2\C[C@@]3(Cc4ccccc4)C(=C(C)C2=O)CCC[C@@H]3O)cc1 [Compound 134, (3E,4aS,5S)-3-[4-(Tetradec-1-inyl)benzyliden]-4a-benzyl-4,4a,5,6,7,8-hexahydro-5-hydroxy-1-methylnaphthalen-2(3H)-one]	–	–	10 to 50	10 to 50	–
CC1=C(/C=C2\C[C@@]3(C)C(CCC[C@@H]3O)C(C)C2=O)NCC1 (stereo partly drawn) [Compound 158, (3E,4aS,5S)-Octahydro-3-[(4,5-dihydro-3-methyl-1H-pyrrol-2-yl)methylen]-5-hydroxy-1,4a-dimethylnaphthalen-2(1H)-one]	–	10 to 50	10 to 50	10 to 50	–
CC1=C2CCC[C@H](O)[C@@]2(C)CC(=Cc2ccc(C#CCN(C)C)cc2)C1=O [Compound 396, (4aS,5S)-3-[4-(3-Dimethylamino-prop-1-ynyl)-benzylidene]-5-hydroxy-1,4a-dimethyl-4,4a,5,6,7,8-hexahydro-3H-naphthalen-2-one]	–	10 to 50	10 to 50	–	IC50 (MPTPA): 10 to 50 µM
CC1(CCCc2ccccc2)C(=O)CC[C@@]2(C)C1CCC[C@@H]2O (stereo partly drawn) [Compound 397, (4aS,5S)-5-Hydroxy-1,4a-dimethyl-1-(3-phenyl-propyl)-octahydro-naphthalen-2-one]	10 to 50	–	10 to 50	–	IC50 (Cdc25A; read-out: IC50 Target Cdc25A): 10 to 50 µM
C/C=C1\CC[C@@]2(C)C(=C1C)CCC[C@@H]2O [Compound 411, (2E,4aS,5S)-6-Ethylidene-5,8a-dimethyl-1,2,3,4,6,7,8,8a-octahydro-naphthalen-1-ol]	10 to 50	–	–	–	–
CCC(c1ccc(I)cc1)C1C[C@@]2(C)C(=C(C)C1=O)CCC[C@@H]2O (stereo partly drawn) [Compound 412, (4aS,5S)-5-Hydroxy-3-[1-(4-iodo-phenyl)-propyl]-1,4a-dimethyl-4,4a,5,6,7,8-hexahydro-3H-naphthalen-2-one]	–	10 to 50	10 to 50	10 to 50	–
CC1=C2CCC[C@H](O)[C@@]2(C)CCC1=O [Compound 413, (4aS,5S)-5-Hydroxy-1,4a-dimethyl-4,4a,5,6,7,8-hexahydro-3H-naphthalen-2-one]	–	10 to 50	10 to 50	10 to 50	–
